Converted amounts (≈) assume the structure as drawn.
Columns and labels:
HL-60 cells = experiment: Membrane phenotype, cell surface antigen by flow cytometry; assay type: cell-based, human; conditions: Brusatol 25 ng/ml, 4-day protocol
Protocol: Cell lines were tested using a 4-day incubation protocol, unless otherwise specified.
3) Determination of cell surface antigen by flow cytometry. Cells (10^6) were washed with PBS and then incubated for 30 min at room temperature with respective monoclonal antibodies, washed with 20 volumes of diluent (PBS with 0.1% sodium azide and 1% BSA), and resuspended in 0.5 ml of fresh diluent for evaluation. Necrotic cells were excluded from the analysis by propidium iodide (PI) staining. The following mAbs (Sigma, St. Louis, Mo.) were used to assess the maturation level of myeloid cell lines: antiCD15 (Leu M1), antiCD-11b (OKM1), antiCD14 and antiCD13. The following mAbs (Sigma, St. Louis, Mo.) were used to assess the maturation level of lymphocytic cell lines: antiCD20, antiHLA-DR and antikappa light chain.
Cells were induced to differentiate with the indicated concentrations of brusatol using a 4-day protocol and then analyzed for membrane markers of differentiation as described under “Materials and methods”. Results are expressed as the specific mean fluorescence intensity (ratio of antigen antibody flourescence over isotype antibody fluorescence), and represents the mean of two independent studies.

[1] = test system: HL-60 (human promyelocytic) cells; experiment: HL-60 cell differentiation of quassinoids, NBT reduction; assay type: cell-based; conditions: Homo sapiens, HL-60, 96 h, read-out: induction of differentiation (EC50, μM)
Protocol: (§1) Induction of differentiation was determined by the ability of treated cells to produce superoxide anions (nitroblue tetrazolium (NBT)-reduction), a functional marker of mature macrophages or granulocytes. Proliferation capacity is equivalent to cell growth and was measured by incorporation of [3H]thymidine into DNA over a period of 18 h, and cytotoxic activity was evaluated by the loss of membrane integrity as shown by trypan blue exclusion. […] Although members of the brusatol and glaucarubolone series were active, when comparing members of both series that varied only in the positioning of the epoxymethano bridge, great differences were noted, as shown with yadianzolide C (5) and glaucarubolone (24), and analogues 4 (brusatol series) and 32 (glaucarubolone series).
(§2) HL-60 (human promyelocytic) cells were tested using a 4-day incubation protocol. In brief, cells in log phase (approximately 10^6 cells/mL) were diluted to […] and preincubated overnight (18 h) in 24-well plates to allow cell-growth recovery. Then, samples dissolved in DMSO were added, keeping the final DMSO concentration at 0.1% (v/v). Control cultures were treated with the same concentration of DMSO. After 4 days of incubation, the cells were analyzed to determine the percentage of cells undergoing maturation as determined by NBT reduction. Concomitantly, the effect on viability and proliferation of HL-60 cells was determined. In each experiment, 1α, 25-dihydroxyvitamin D3 (EC50=0.01 μM) and brusatol (EC50=0.07 μM) were used as reference controls. EC50 and IC50 values were calculated using 5-7 test concentrations (in duplicate), and consistent results were obtained, indicating the data reported for the related quassinoids are reliable.
(1) Nitroblue Tetrazolium (NBT) Reduction. Evaluation of NBT reduction was used to assess the ability of sample-treated HL-60 cells to produce superoxide when challenged with 12-O-tetradecanoylphorbol 13-acetate (TPA). A 1:1 v/v) mixture of a cell suspension (10^6 cells) and TPA/NBT solution (2 mg/mL NBT and 1 μg/mL TPA in phosphate buffered solution) was incubated for 1 h at 37° C. Positive cells reduce NBT yielding intracellular black-blue formazan deposits, which were quantified by microscopic examination of >200 cells. Results were expressed as a percentage of positive cells.

[2] = HL-60 cytotoxicity of quassinoids, trypan blue exclusion; assay type: cell-based, human; conditions: human
Protocol: as §1, §2
(2) Cytotoxicity. Since loss of membrane integrity is an early feature of necrotic cells and a late feature of apoptotic cells, trypan blue, a […] blue dye, was used to stain cells with compromised plasma membranes, while leaving intact cells unstained. Cells […] of trypan blue (0.2% w/v in PBS), incubated for at least 5 min at room temperature, and counted using a hematocytometer. Viability percentages were calculated with duplicate samples.

[3] = Cytotoxicity, viability by Trypan blue exclusion; conditions: human, HL-60 cells, Cytotoxicity (IC50, ng/ml), four days
Protocol: (§3) HL-60, K562, U937, Reh and Daudi cells were obtained from the American Type Culture Collection (Rockville, Md.). Kasumi-1, NB4, BV173, SUPB13, and RS4;11 cells were provided by the Section of Hematology/Oncology, University of Illinois College of Medicine, Chicago, Ill. All cell lines were maintained in suspension culture using RPMI 1640 medium supplemented with 10% heat-inactivated fetal bovine serum, 100 units of penicillin/ml and 100 μg of streptomycin/ml at 37° C. in a humidified atmosphere of 5% CO2 in air. All cells were routinely tested for mycoplasma contamination.
(§4) Cellular viability was monitored by Trypan blue exclusion. Inhibition of [3H]thymidine incorporation into DNA was determined to assess the level of cell proliferation as well as DNA synthesis inhibition. […] The filters were counted using a Microbeta™ liquid scintillation counter (Wallac, Turku, Finland) with scintillation fluid. Finally, the percentage of [3H]thymidine incorporation per 10^6 cells was calculated by dividing the dpm of sample-treated cells by the dpm of DMSO-treated cells.
(§5) ^aViability was determined by Trypan blue exclusion in duplicate samples. […] Results are expressed as median inhibitory cell concentrations of two independent experiments (±standard deviations).

HL-60 = experiment: Cytotoxicity, viability by Trypan blue exclusion; conditions: four days
Protocol: as §3, §4, §5

[4] = Cytotoxicity, viability by Trypan blue exclusion; conditions: human, U937 cells, Cytotoxicity (IC50, ng/ml), four days
Protocol: as §3, §4, §5

U937 = experiment: Cytotoxicity, viability by Trypan blue exclusion; conditions: four days
Protocol: as §3, §4, §5

[5] = Cytotoxicity, viability by Trypan blue exclusion; conditions: human, SUPB13 cells, Cytotoxicity (IC50, ng/ml), four days
Protocol: (§6) All cell lines were maintained in suspension culture using RPMI 1640 medium supplemented with 10% heat-inactivated fetal bovine serum, 100 units of penicillin/ml and 100 μg of streptomycin/ml at 37° C. in a humidified atmosphere of 5% CO2 in air.
(§7) Cellular viability was monitored by Trypan blue exclusion.
as §5

SUPB13 = experiment: Cytotoxicity, viability by Trypan blue exclusion; conditions: four days
Protocol: as §6, §7, §5

[6] = Cytotoxicity, viability by Trypan blue exclusion; conditions: human, Reh cells, Cytotoxicity (IC50, ng/ml), four days
Protocol: as §6, §7, §5

Reh = experiment: Cytotoxicity, viability by Trypan blue exclusion; conditions: four days
Protocol: as §6, §7, §5

[7] = human beings; single intravenous injection of 3 mg/m^2; cited from earlier work
[8] = test system: metastatic breast cancer and malignant melanoma; conditions: phase II trials, adult patients with metastatic breast cancer and malignant melanoma; cited from earlier work
in vitro [9] = conditions: human
Protocol: as §3
Cellular viability was monitored by Trypan blue exclusion. Inhibition of [3H]thymidine incorporation into DNA was determined to assess the level of cell proliferation as well as DNA synthesis inhibition. Cells were treated with test samples for four days and then placed into 96-well plates (100 μl) and treated with [3H]thymidine (0.5 μCi/ml, 65 Ci/mmol) for 18 h at 37° C. in a 5% CO2 incubator. Cells then were collected on glass fiber filters using a TOMTEC Harvester 96®. The filters were counted using a Microbeta™ liquid scintillation counter (Wallac, Turku, Finland) with scintillation fluid. Finally, the percentage of [3H]thymidine incorporation per 10^6 cells was calculated by dividing the dpm of sample-treated cells by the dpm of DMSO-treated cells.
as §5

in vitro [10] = conditions: human; remark: listed apart in the source
Protocol: Human blood (20 ml) was collected in heparinized sterile tubes and white blood cells were separated using Ficoll reagent (8 ml/5 ml blood diluted in 15 ml Hank's buffered solution). After centrifugation at low speed (1500 rpm) for 30 min, the white coat was removed and washed 3-times with Hank's buffered solution. The cell pellet was resuspended in RPMI 1640 medium supplemented with 10% FBS. This preparation contained >90% lymphocytes and <5% monocytes, as determined by Wright-Giemsa staining.
as §7, §5

[11] = test system: patients with various types of solid tumors; conditions: phase I clinical trials; cited from earlier work

Question: What does the source list for `COC(=O)[C@@]12OC[C@]34[C@H]([C@@H](O)[C@@H]1O)[C@@]1(C)CC(=O)C(O)=C(C)[C@@H]1C[C@H]3OC(=O)[C@H](OC(=O)C=C(C)C)[C@@H]24` [compound 1, brusatol]?
Answer: CD11b, specific mean fluorescence intensity (HL-60 cells): 2.2 ± 0.5; CD13, specific mean fluorescence intensity (HL-60 cells): 266.1 ± 55.7; CD14, specific mean fluorescence intensity (HL-60 cells): 1.0; CD15, specific mean fluorescence intensity (HL-60 cells): 177.1 ± 8.7; EC50 [1]: 0.07 µM; IC50 at 4 days ([2]; HL-60 cells, HL-60, 4-day incubation, trypan blue exclusion, read-out: cytotoxicity (IC50)): 170 ± 1 nM; IC50 at 4 days [3]: 0.05 to 0.1 µg/mL (≈ 0.0961 to 0.192 µM); Cytotoxicity (IC50, ng/ml) (HL-60): 50 ± 0.9 ng/mL; IC50 at 4 days [4]: < 0.025 µg/mL; Cytotoxicity (IC50, ng/ml) (U937): 12.5 ± 1.1 ng/mL; IC50 at 4 days [5]: < 0.025 µg/mL; Cytotoxicity (IC50, ng/ml) (SUPB13): 20 ± 1.2 ng/mL; IC50 at 4 days [6]: 0.05 to 0.1 µg/mL (≈ 0.0961 to 0.192 µM); Cytotoxicity (IC50, ng/ml) (Reh): 100 ± 5.4 ng/mL

Question: What does the source list for `COC(=O)[C@@]12OC[C@]34[C@H]([C@@H](O)[C@@H]1O)[C@@]1(C)CC(=O)C(O)=C(C)[C@@H]1C[C@H]3OC(=O)[C@H](OC(=O)/C=C(\C)C(C)C)[C@@H]24` [compound 2, bruceantin]?
Answer: EC50 [1]: 0.02 ± 0.002 µM; IC50 at 4 days [2]: 40 ± 3 nM; blood level [7]: 22 ng/mL; objective tumor regressions [8]: No objective tumor regressions were observed; IC50 at 4 days (in vitro [9]): > 0.05 µg/mL; IC50 at 3 days (in vitro [10]): > 0.05 µg/mL; hematologic toxicity [11]: moderate to insignificant

Reference: patent publication US20020193425A1, “Cancer chemopreventative compounds and compositions and methods of treating cancers” (priority 2001, published 2002)
